Laboratory results published in patent US20090227616A1, “INHIBITORS OF AKT ACTIVITY” (SMITHKLINE BEECHAM CORPORATION, a corporation, priority 2005, published 2009).
In brackets after ≈: the same amount, converted by molar mass.

Experiments:
[1] = target: T1, FL AKT2 (Homo sapiens, UniProt P31751); assay: Full-length AKT enzyme assay (substrate phosphorylation, SPA); assay type: biochemical; conditions: 4 uM ATP
T1 construct: 0.025 um, FL AKT2

[2] = target: T2, FL AKT1 (Homo sapiens, UniProt P31749); assay: as above; assay type: biochemical; conditions: 4 uM ATP
T2 construct: Full-length human AKT1 gene was amplified by PCR; His tag (from vector pFastBacHTb; own knowledge that this vector adds an N-terminal 6xHis and TEV site) (N); made in house; host or cells: baculovirus; virus produced in Sf9, protein expressed in T. ni insect cells
T2 sequence (P31749 whole entry): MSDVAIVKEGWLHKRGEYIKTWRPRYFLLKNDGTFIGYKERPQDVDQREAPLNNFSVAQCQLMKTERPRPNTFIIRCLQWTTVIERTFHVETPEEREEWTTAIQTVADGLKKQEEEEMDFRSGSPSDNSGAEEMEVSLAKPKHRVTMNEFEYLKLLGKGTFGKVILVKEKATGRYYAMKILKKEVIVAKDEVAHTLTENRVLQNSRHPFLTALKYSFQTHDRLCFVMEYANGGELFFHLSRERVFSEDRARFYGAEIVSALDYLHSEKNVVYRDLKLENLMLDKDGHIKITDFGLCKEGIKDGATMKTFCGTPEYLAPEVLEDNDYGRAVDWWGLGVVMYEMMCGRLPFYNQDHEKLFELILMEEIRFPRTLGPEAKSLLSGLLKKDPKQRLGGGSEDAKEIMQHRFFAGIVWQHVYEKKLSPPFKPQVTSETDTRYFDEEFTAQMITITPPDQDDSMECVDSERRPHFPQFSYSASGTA

[3] = test system: BT474 (human breast carcinoma); assay: Methylene Blue Growth Inhibition Assay; assay type: cell-based; conditions: BT-474, 72 h, BT474, 3 days
Procedure: (§1) Tumor cell lines used in this assay were BT474 (human breast carcinoma) and LNCaP (lymph node metastasis of prostate cancer). HFF (normal human foreskin fibroblast) was also included. All cell lines were cultured in RPMI 1640 media (Invitrogen Corporation 22400-071) containing 10% Fetal Bovine Serum (FBS) at 37° C. in a humidified 5% CO2 incubator. Cells were harvested using trypsin/EDTA, counted using a hemacytometer and plated in 96-well tissue culture plates (Costar 35-3075), 100 uL per well, at the following densities: BT474 15,000 cells/well, LNCaP 5,000 cells/well and HFF 5,000 cells/well. 10 mM stocks of compounds in DMSO were serially diluted in DMSO through nine 3-fold dilutions in 96-well plates (Costar Corning 3363), and stored at −80C. The next day, compound dilutions were thawed and 4 uL of each transferred to 662 uL RPMI 1640+100 ug/mL gentamicin, resulting in twice the final required test concentrations. 100 uL of compounds diluted in RPMI 1640 were added to all cell lines. The final concentration of DMSO in all wells, including controls, was 0.3%. Cells were incubated at 37C, 5% CO2 for 3 days. Medium was removed by aspiration. Cell biomass was estimated by staining cells with 80 uL methylene blue (Sigma M9140, 0.5% in 50:50 ethanol:water), and incubating at room temperature for 1 hour. Stain was aspirated and the plates rinsed by immersion in water, then air-dried. Stain was released from cells by adding 100 uL of solubilizing solution (1% N-lauroyl sarcosine, sodium salt, Sigma L5125, in PBS) and incubating at room temperature for at least 30 minutes. Plates were shaken and the optical density at 620 nm was measured on a microplate reader. Percent inhibition of cell growth was calculated relative to vehicle-treated control wells. Concentration of compound that inhibits 50% of cell growth (IC50) was interpolated using non-linear regression (Levenberg-Marquadt) and the equation, y=Vmax*(1−(x̂n/K̂n+x̂n)))+Y2. [Ref: Mager, M. E. (1972) Data Analysis in Biochemistry and Biophysics. New York: Academic Press]

[4] = test system: HFF (normal human foreskin fibroblast); assay: Methylene Blue Growth Inhibition Assay; assay type: cell-based; conditions: 72 h, 3 days
Procedure: as §1

[5] = test system: LNCaP (lymph node metastasis of prostate cancer); assay: Methylene Blue Growth Inhibition Assay; assay type: cell-based; conditions: Homo sapiens, 72 h, 3 days
Procedure: as §1

[6] = Solubility in 50 mM phosphate buffer at pH 7.4; assay type: physicochemical; conditions: aqueous buffer

T1 sequence (P31751 whole entry): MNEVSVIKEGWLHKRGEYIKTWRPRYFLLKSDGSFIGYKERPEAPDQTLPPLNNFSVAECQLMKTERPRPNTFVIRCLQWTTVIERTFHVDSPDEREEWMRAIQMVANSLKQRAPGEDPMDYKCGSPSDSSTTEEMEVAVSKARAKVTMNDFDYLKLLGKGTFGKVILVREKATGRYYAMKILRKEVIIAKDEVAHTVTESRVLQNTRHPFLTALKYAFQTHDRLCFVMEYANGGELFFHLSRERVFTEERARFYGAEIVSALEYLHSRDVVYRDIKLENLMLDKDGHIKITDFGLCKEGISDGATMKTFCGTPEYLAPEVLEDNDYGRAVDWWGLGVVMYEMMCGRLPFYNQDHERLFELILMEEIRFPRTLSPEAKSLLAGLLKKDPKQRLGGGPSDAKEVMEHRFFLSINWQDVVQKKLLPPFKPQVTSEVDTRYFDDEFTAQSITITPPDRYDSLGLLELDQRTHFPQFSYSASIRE

Compound | IC50 [1] [µM] | IC50 [2] [µM] | IC50 [3] [µM] | IC50 [5] [µM] | solubility [6] [µM] | IC50 [4] [µM]
CCn1c(-c2nonc2N)nc2c(C#CC(C)(C)O)ncc(OCC(CN)CC(C)C)c21 (stereo not drawn) [Example 12, 4-[7-{[2-(aminomethyl)-4-methylpentyl]oxy}-2-(4-amino-1,2,5-oxadiazol-3-yl)-1-ethyl-1H-imidazo[4,5-c]pyridin-4-yl]-2-methyl-3-butyn-2-ol] | – | – | 0.556 | 0.081 | 164 (≈ 72.4 µg/mL) | 26.4
CCn1c(-c2nonc2N)nc2c(C#CC(C)(C)O)ncc(OCC3(CN)CC3)c21 [Example 15, 4-[7-({[1-(aminomethyl)cyclopropyl]methyl}oxy)-2-(4-amino-1,2,5-oxadiazol-3-yl)-1-ethyl-1H-imidazo[4,5-c]pyridin-4-yl]-2-methyl-3-butyn-2-ol] | – | – | 0.093 | 0.11 | 160 (≈ 65.8 µg/mL) | > 30
CCn1c(-c2nonc2N)nc2c(C#CC(C)(C)O)ncc(OC[C@@H](C)CN)c21 [Example 8, 4-[7-{[(2S)-3-amino-2-methylpropyl]oxy}-2-(4-amino-1,2,5-oxadiazol-3-yl)-1-ethyl-1H-imidazo[4,5-c]pyridin-4-yl]-2-methyl-3-butyn-2-ol] | – | – | 0.202 | 0.053 | 141 (≈ 56.3 µg/mL) | 22.4

Further lines, with some results ahead:

IC50 [1] [µM] | IC50 [2] [µM] | IC50 [3] [µM] | IC50 [5] [µM] | solubility [6] [µM] | Compound | IC50 [4] [µM]
0.025 | 0.003 | 0.496 | 0.096 | 35 (≈ 15.9 µg/mL) | CCn1c(-c2nonc2N)nc2c(C#CC(C)(C)O)ncc(OCCCN3CCCCC3)c21 [Example 1, 4-(2-(4-amino-1,2,5-oxadiazol-3-yl)-1-ethyl-7-{[3-(1-piperidinyl)propyl]oxy}-1H-imidazo[4,5-c]pyridin-4-yl)-2-methyl-3-butyn-2-ol] | 17.7
0.016 | 0.002 | 0.437 | 0.096 | 152 (≈ 66.8 µg/mL) | CCn1c(-c2nonc2N)nc2c(C#CC(C)(C)O)ncc(OCCCN3CCCC3)c21 [Example 2, 4-(2-(4-amino-1,2,5-oxadiazol-3-yl)-1-ethyl-7-{[3-(1-pyrrolidinyl)propyl]oxy}-1H-imidazo[4,5-c]pyridin-4-yl)-2-methyl-3-butyn-2-ol] | > 15
